Measurements published in patent publication US20230149358A1, “COMBINATION CANCER THERAPY WITH PENTAAZA MACROCYCLIC RING COMPLEX AND HORMONE THERAPY AGENT” (Galera Labs, LLC, priority 2020, published 2023).

How the values were obtained:
[1] = test system: T47D-MnSOD^K68Q cells; assay: Clonogenic cell survival, T47D cells expressing MnSOD^K68Q; type: cell-based, human; settings: 1 μM hydroxy-Tam
Description: FIGS. 14a-14g are images and plots that illustrate that loss of SIRT3-induced MnSOD-K68 deacetylation leads to hydroxy-Tam resistance in human breast cancer cells. With respect to FIG. 14a, T47D-MnSOD^WT, T47D-MnSOD^K68R, and T47D-MnSOD^K68D permanent cell lines were selected for hydroxy-Tam resistance in 1 μM for 3 months, and clonogenic cell survival experiments were completed. With respect to FIG. 14b, T47D-shCtrl and T47D-shSIRT3 permanent cell lines were exposed to 1 μM 4-hydroxy-Tam For 24 h (HT), and clonogenic cell survival experiments were done. With respect to FIG. 14c, T47D and T47D-HTR cells, with and without exposure to 1 μM 4-hydroxy-Tam for 24 h (HT), were measured for cytotoxicity by clonogenic survival experiments. […] The cell lysates were analyzed by immunoblotting with anti-MnSOD-K122-Ac (validated as a SIRT3 deacetylation target in Tao et al., 2010, Cancer Cell), anti-MnSOD, anti-OSCP-K139-Ac (validated as a SIRT3 deacetylation target in Tao et al., 2010, Cancer Cell), anti-OSCP, anti-IDH2K413-Ac (validated as a SIRT3 deacetylation target in Someya et al., 2010, Cancer Cell), anti-IDH2, and anti-actin. […]
Clonogenic cell survival assay. For the clonogenic survival analysis, exponentially growing cells were replated using appropriate dilutions, and clonogenic survival was evaluated after 14 days in regular growth medium. […]

[2] = test system: MCF7-MnSOD^K68Q cells; assay: Clonogenic cell survival, MCF7-MnSOD^K68Q cells; type: cell-based, human
Description: FIGS. 25a-25b show clonogenic cell survival studies in MCF7-MnSOD^K68Q cells exposed to either: Fulv at 100 nM (in FIG. 25a); or Palb at 0.5 μM (in FIG. 25b) using standard methods. […] Error bars are ±1 SEM. Experiments in triplicate. *** p<0.001.
Clonogenic cell survival assay. For the clonogenic survival analysis, exponentially growing cells were replated using appropriate dilutions, and clonogenic survival was evaluated after 14 days in regular growth medium. Cells were stained with crystal violet, and colonies of >50 cells were counted and utilized to calculate clonogenic survival^46.
To evaluate clonogenic cell survival by testing cell growth at low density, 500 exponentially growing cells were plated in triplicate in 6-well plates using serial dilution, and the growth of the cells was examined throughout 14 days in regular growth medium. Cells were fixed with 70% ethanol for 5 minutes and then stained with 0.5% crystal violet (in 25% methanol) for 20 minutes. Photos of stained plates were taken, and colonies of more than 50 cells were counted and used to calculate clonogenic survival.

[3] = test system: LNCaP-MnSOD^K68Q xenografts; assay: LNCaP-MnSOD^K68Q hindlimb xenograft growth in nude mice; type: in vivo; settings: male nude mice; GC4419 10 mg/kg once per week, ENZ 25 mg/kg/day; 46 days
Description: In FIG. 21(a), clonogenic cell survival experiments were performed in LNCaP-ENZR (left two bars) and LNCaP-MnSOD^K68Q (right two bars) treated with ENZ, with or without GC4419 (20 μM) for 5 days. […] Tumor volumes were measured three times a week for 46 days. For each group n=10. Error bars ±1 SEM. All experiments done in triplicate. **p<0.01.
Thus, it was surmised that restoring SOD activity, using the pentaaza macrocyclic ring complex GC4419, an agent that chemically detoxifies superoxide, would reverse/convert the ENZR to a sensitive phenotype. […] The dose and pharmacokinetics for GC4419 is based on data for murine models^92-93.

[4] = test system: MCF7 cells overexpressing MnSOD^K68Q; assay: MTT assay, MCF7 cells overexpressing MnSOD^K68Q; type: cell-based, human; settings: 48 hours
Description: In FIGS. 28a-28b, cell lysates of 250 nM, 500 nM, 1 μM cisplatin-resistant and […], 1 nM and 2 nM doxorubicin-resistant MCF7 cells (cultured in drug-containing media for 3 months) were collected and immunoblotted for MnSOD-K68-Ac, MnSOD, actin and tubulin. In FIG. […] After 48 hours, MTT assay is conducted to determine the cell viability after chemotherapy drug treatment.
Cell proliferation was measured using MTT proliferation assay kit (ab211091). 10,000 exponentially growing cells were plated in regular growth medium per well into 96-well plates in triplicate. Cells were treated with specified drugs after overnight and incubated for 48 hours. The treatment media was then discarded and a mixture of 50 μl MTT reagent and 50 μl serum-free media was added into each well and incubated for 3 hours at 37° C. 150 μl of MTT solvent was then added, and the plate was shaken for 15 minutes avoiding light. The absorbance was read at OD=590 nm and used to evaluate cell proliferation.

[5] = test system: hamster; settings: acute radiation-induced oral mucositis; cited from earlier work
[6] = test system: rat; settings: rat model of inflammation; cited from earlier work
[7] = test system: adult mice; settings: lethal total body irradiation of adult mice; cited from earlier work
[8] = test system: colon of rats; settings: experimental model of colitis; cited from earlier work
[9] = test system: rat; settings: rat model of collagen-induced arthritis; cited from earlier work

4-hydroxytamoxifen [hydroxy-Tam]
cytotoxicity (clonogenic survival), versus cells expressing MnSOD WT or K68R [1]: exhibited significant resistance to the cytotoxicity
cytotoxicity (clonogenic survival), versus cells expressing MnSOD WT or K68R ([2]; MCF7 cells expressing MnSOD^K68Q, 1 μM hydroxy-Tam for 5 days): exhibited significant resistance to the cytotoxicity

CNC(=O)c1ccc(N2C(=S)N(c3ccc(C#N)c(C(F)(F)F)c3)C(=O)C2(C)C)cc1F [ENZ, enzalutamide, reference compound]
xenograft growth (tumor volume) [3]: exhibited similar growth characteristics as the control LNCaP cells

[NH2][Pt]([NH2])([Cl])[Cl] [CDDP, cisplatin]
cell viability (MTT), resistance ([4]; CDDP 1 μM): exhibited higher resistance

C[C@]12CC[C@@H]3c4ccc(O)cc4C[C@@H](CCCCCCCCC[S+]([O-])CCCC(F)(F)C(F)(F)F)[C@H]3[C@@H]1CC[C@@H]2O (some centres unmarked) [Fulv, Fulvestrant]
clonogenic cell survival, resistance versus MCF7-MnSOD^WT ([2]; Fulv at 100 nM): exhibited resistance

COc1cccc2c1C(=O)c1c(O)c3c(c(O)c1C2=O)C[C@@](O)(C(=O)CO)C[C@@H]3O[C@H]1C[C@H](N)[C@H](O)[C@H](C)O1 [DXR, doxorubicin]
cell viability (MTT), resistance ([4]; DXR 2 nM): exhibited higher resistance

[Cl-].[Cl-].[Mn+2].c1cc2nc(c1)CN[C@@H]1CCCC[C@H]1NCCN[C@@H]1CCCC[C@H]1NC2 [GC4403]
radiation damage [5]: attenuate the radiation damage
inflammation [6]: inhibit inflammation
radiation damage [7]: attenuate the radiation damage
injury to the colon [8]: very significantly reduce the injury to the colon
joint disease [9]: prevent joint disease
